Target: T1, cereblon (Mus musculus, UniProt Q8C7D2)
T1 construct: gene Crbn
T1 sequence (Q8C7D2 1-445): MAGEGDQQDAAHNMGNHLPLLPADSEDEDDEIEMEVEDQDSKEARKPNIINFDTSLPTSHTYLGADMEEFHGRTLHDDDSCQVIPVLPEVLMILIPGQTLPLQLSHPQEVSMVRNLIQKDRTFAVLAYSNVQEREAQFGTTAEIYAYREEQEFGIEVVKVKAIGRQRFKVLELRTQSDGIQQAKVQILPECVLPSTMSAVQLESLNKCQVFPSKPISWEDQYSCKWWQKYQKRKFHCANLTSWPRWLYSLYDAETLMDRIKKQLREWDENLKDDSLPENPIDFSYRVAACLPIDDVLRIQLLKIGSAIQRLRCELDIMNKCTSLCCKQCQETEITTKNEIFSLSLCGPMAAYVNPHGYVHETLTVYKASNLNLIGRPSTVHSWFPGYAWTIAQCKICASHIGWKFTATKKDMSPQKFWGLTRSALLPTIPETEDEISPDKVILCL
Experiment: dose-dependent protection of proinsulin from cereblon-dependent degradation in NIT1 cells
Type: cell-based

O=C1CCC(=O)N1 [succinimide]
dose-dependent protection of proinsulin from cereblon-dependent degradation in N: In fact, succinimide binds to cereblon, protects proinsulin degradation from proinsulin degrader X in a dose-dependent manner

From paper PMC9418190, “UDP-glucose, cereblon-dependent proinsulin degrader” (Scientific Reports, 2022)
